Measured values from US9926276B2, “Substituted benzamides with activity towards EP4 receptors” (DRACONIS PHARMA, S.L., priority 2013, dated 2018).

Legend:
human EP4 receptor [1] = target: T1, human EP4 receptor (Homo sapiens, UniProt P35408); assay: Measurement of cAMP responses by Homogeneous Time Resolved Fluorescence (Test 2); type: cell-based; set-up: expressed in transfected cells; settings: for Results of Test 2 (Functional assay, antagonist % inh): at 10 μM, PGE2 1 nM, HEK-293 cells stably expressing human EP4; for inhibition at 10 µM: HEK293, PGE2 1 nM, HEK-293 cells stably expressing human EP4, read-out: Results of Test 2 (Functional assay, antagonist % inh)
Method: Test 2: Measurement of cAMP Responses by Homogeneous Time Resolved Fluorescence
cAMP measurements on HEK-293 cells that stably expressed human EP4 receptors were performed by using a system based on Homogeneous Time Resolved Fluorescense (HTRF). This technology allows the direct measurement of cAMP in living cells. The principle of this assay is based on competition between cAMP produced by cells and cAMP-d2 conjugate for the binding with monoclonal anti-cAMP-cryptate conjugate. The HTRF cAMP kit from CisBio was used according to the manufacturer's directions. The experimental procedure was performed as stated below.
Suspended cells (30,000 cells per well) were added to 96-well culture plates in 30 μl of Optimem supplemented with 500 μM IBMX. Compounds were then added in 10 μl of stimulation buffer and incubated at 25° C. for 30 minutes followed by 10 μl of PGE2 to a final concentration of 1 nM. After 30 minutes at 25° C., the reaction was stopped lysing the cells with a mixture of 25 μl of cryptate and 25 μl of cAMP-d2 prepared in the lysis buffer supplied by the manufacturer. Plates were incubated for an additional hour at room temperature and read at 665 nm/620 nm using an UltraEvolution Plate reader (Tecan).
Antagonist percentage inhibition was calculated relating compounds activity to the 0% inhibition of the wells incubated with 1 nM PGE2 alone and 100% inhibition of the wells incubated with 1 nM PGE2 plus 1 μM of the reference antagonist.

human EP4 receptor [2] = target: T1, human EP4 receptor; assay: Human EP4 receptor radioligand binding assay (Test 1); set-up: expressed in transfected cells; host or cells: HEK-293 cell membranes; settings: [3H]-PGE2 1 nM, transfected HEK-293 cell membranes; for Results of Test 1 (Binding assay, % inh): at 10 μM; for inhibition at 10 µM: read-out: Results of Test 1 (Binding assay, % inh)
Method: Test 1: Human EP4 Receptor Radioligand Binding Assay
To investigate binding properties of EP4 receptor ligands to human EP4 receptor, transfected HEK-293 cell membranes and [3H]-PGE2 (Perkin Elmer) were used. In 96-well plates the assay was carried out with a total reaction volume of 250 μl, containing 25 μl of membrane suspension (30 μg protein/well), 25 μl of [3H]-PGE2 (1 nM) in either absence or presence of 25 μl of either buffer or PGE2 (10 μM) for total and non-specific binding, respectively. Binding buffer contained 25 mM MES, 10 mM MgCl2 and 1 mM EDTA at pH 6.0. Plates were incubated at 25° C. for 120 minutes. After the incubation period, 200 μl of incubate were transferred to MultiScreen HTS, FB plates (Millipore), filtered and plates were washed 6 times with ice-cold 10 mM MES, 0.01% BSA at pH 6.0. Filters were dried and counted in a MicroBeta scintillation counter (Perkin-Elmer) using EcoScint liquid scintillation cocktail.
Percentage inhibition was calculated relating compounds activity to the 0% inhibition of the wells incubated with 1 nM [3H]-PGE2 alone (total binding) and 100% inhibition of the wells incubated with 1 nM [3H]-PGE2 plus 10 μM PGE2 (non-specific binding).

T1 sequence (P35408 whole entry): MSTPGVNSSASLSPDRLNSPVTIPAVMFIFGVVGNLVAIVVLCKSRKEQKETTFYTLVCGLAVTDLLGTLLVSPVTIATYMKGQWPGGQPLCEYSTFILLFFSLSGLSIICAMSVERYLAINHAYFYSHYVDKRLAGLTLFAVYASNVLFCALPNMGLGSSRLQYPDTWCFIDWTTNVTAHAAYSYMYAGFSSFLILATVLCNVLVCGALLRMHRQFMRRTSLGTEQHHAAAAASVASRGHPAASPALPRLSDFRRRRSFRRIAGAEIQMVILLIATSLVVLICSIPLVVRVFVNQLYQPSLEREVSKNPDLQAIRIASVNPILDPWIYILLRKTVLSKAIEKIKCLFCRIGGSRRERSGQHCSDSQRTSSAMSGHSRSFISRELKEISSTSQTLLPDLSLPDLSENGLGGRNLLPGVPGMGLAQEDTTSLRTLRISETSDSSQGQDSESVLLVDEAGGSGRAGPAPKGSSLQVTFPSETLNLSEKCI

Row | Compound | Results of Test 2 (Functional assay, antagonist % inh) (human EP4 receptor [1]) | Results of Test 1 (Binding assay, % inh) (human EP4 receptor [2]) | inhibition at 10 µM (human EP4 receptor [1]) [%] | inhibition at 10 µM (human EP4 receptor [2]) [%]
1 | COc1cccc(-c2ccc(C)c(C(=O)Nc3c(C)cc(C(=O)O)cc3C)c2)c1 [Example 3, 4-(3′-Methoxy-4-methylbiphenyl-3-ylcarboxamido)-3,5-dimethylbenzoic acid] | $ (% inh >75) | # (% inh >75) | – | –
2 | Cc1ccc(-c2cccc(F)c2)cc1C(=O)Nc1c(C)cc(C(=O)O)cc1C [Example 4, 4-(3′-Fluoro-4-methylbiphenyl-3-ylcarboxamido)-3,5-dimethylbenzoic acid] | $ (% inh >75) | # (% inh >75) | – | –
3 | Cc1ccc(-c2cccc(C#N)c2)cc1C(=O)Nc1c(C)cc(C(=O)O)cc1C [Example 5, 4-(3′-Cyano-4-methylbiphenyl-3-ylcarboxamido)-3,5-dimethylbenzoic acid] | $ (% inh >75) | # (% inh >75) | – | –
4 | Cc1ccc(-c2cccc(CO)c2)cc1C(=O)Nc1c(Cl)cc(C(=O)O)cc1Cl [Example 6, 3,5-Dichloro-4-(3′-(hydroxymethyl)-4-methylbiphenyl-3-ylcarboxamido)benzoic acid] | $ (% inh >75) | # (% inh >75) | – | –
5 | Cc1ccc(-c2cccc(C#N)c2)cc1C(=O)Nc1c(Cl)cc(C(=O)O)cc1Cl [Example 7, 3,5-Dichloro-4-(3′-cyano-4-methylbiphenyl-3-ylcarboxamido)benzoic acid] | $ (% inh >75) | # (% inh >75) | – | –
6 | COc1cccc(-c2ccc(C)c(C(=O)Nc3c(Cl)cc(C(=O)O)cc3Cl)c2)c1 [Example 8, 3,5-Dichloro-4-(3′-methoxy-4-methylbiphenyl-3-ylcarboxamido)benzoic acid] | $ (% inh >75) | # (% inh >75) | – | –
7 | Cc1ccc(-c2cccc(CO)c2)cc1C(=O)Nc1c(C)cc(C(=O)O)cc1C [Example 9, 4-(3′-(Hydroxymethyl)-4-methylbiphenyl-3-ylcarboxamido)-3,5-dimethylbenzoic acid] | $ (% inh >75) | # (% inh >75) | – | –
8 | Cc1ccc(-c2cc(Cl)ccc2F)cc1C(=O)Nc1c(C)cc(C(=O)O)cc1C [Example 10, 4-(5′-Chloro-2′-fluoro-4-methylbiphenyl-3-ylcarboxamido)-3,5-dimethylbenzoic acid] | $ (% inh >75) | # (% inh >75) | – | –
9 | Cc1ccc(-c2cc(F)ccc2F)cc1C(=O)Nc1c(C)cc(C(=O)O)cc1C [Example 11, 4-(2′,5′-Difluoro-4-methylbiphenyl-3-ylcarboxamido)-3,5-dimethylbenzoic acid] | $ (% inh >75) | # (% inh >75) | – | –
10 | COc1ccc(F)c(-c2ccc(C)c(C(=O)Nc3c(C)cc(C(=O)O)cc3C)c2)c1 [Example 12, 4-(2′-fluoro-5′-methoxy-4-methylbiphenyl-3-ylcarboxamido)-3,5-dimethylbenzoic acid] | $ (% inh >75) | # (% inh >75) | – | –
11 | Cc1ccc(-c2cccc(C(N)=O)c2)cc1C(=O)Nc1c(C)cc(C(=O)O)cc1C [Example 13, 4-(3′-Carbamoyl-4-methylbiphenyl-3-ylcarboxamido)-3,5-dimethylbenzoic acid] | $ (% inh >75) | # (% inh >75) | – | –
12 | Cc1cc(C(=O)O)cc(C)c1NC(=O)c1cc(-c2cccc(Cl)c2)ccc1Cl [Example 14, 4-(3′,4-Dichlorobiphenyl-3-ylcarboxamido)-3,5-dimethylbenzoic acid] | $ (% inh >75) | # (% inh >75) | – | –
13 | Cc1ccc(-c2cccc(Cl)c2)cc1C(=O)Nc1c(Cl)cc(C(=O)O)cc1Cl [Example 15, 3,5-Dichloro-4-(3′-chloro-4-methylbiphenyl-3-ylcarboxamido)benzoic acid] | $ (% inh >75) | # (% inh >75) | – | –
14 | O=C(O)c1cc(Cl)c(NC(=O)c2cc(-c3cccc(CO)c3)ccc2Cl)c(Cl)c1 [Example 16, 3,5-Dichloro-4-(4-chloro-3′-(hydroxymethyl)biphenyl-3-ylcarboxamido)benzoic acid] | $ (% inh >75) | # (% inh >75) | – | –
15 | COc1cccc(-c2ccc(Cl)c(C(=O)Nc3c(Cl)cc(C(=O)O)cc3Cl)c2)c1 [Example 17, 3,5-Dichloro-4-(4-chloro-3′-methoxybiphenyl-3-ylcarboxamido)benzoic acid] | $ (% inh >75) | # (% inh >75) | – | –
16 | N#Cc1cccc(-c2ccc(Cl)c(C(=O)Nc3c(Cl)cc(C(=O)O)cc3Cl)c2)c1 [Example 18, 3,5-Dichloro-4-(4-chloro-3′-cyanobiphenyl-3-ylcarboxamido)benzoic acid] | $ (% inh >75) | # (% inh >75) | – | –
17 | O=C(O)c1cc(Cl)c(NC(=O)c2cc(-c3cccc(Cl)c3)ccc2Cl)c(Cl)c1 [Example 19, 3,5-Dichloro-4-(3′,4-dichlorobiphenyl-3-ylcarboxamido)benzoic acid] | $ (% inh >75) | # (% inh >75) | – | –
18 | Cc1ccc(-c2cccc(Cl)c2)cc1C(=O)Nc1c(C)cc(C(=O)O)cc1C [Example 20, 4-(3′-Chloro-4-methylbiphenyl-3-ylcarboxamido)-3,5-dimethylbenzoic acid] | $ (% inh >75) | # (% inh >75) | – | –
19 | Cc1cc(C(=O)O)ccc1NC(=O)c1cc(-c2cccc(Cl)c2)ccc1Cl [Example 21, 4-(3′,4-Dichlorobiphenyl-3-ylcarboxamido)-3-methylbenzoic acid] | $ (% inh >75) | # (% inh >75) | – | –
20 | Cc1cc(C(=O)O)cc(Cl)c1NC(=O)c1cc(-c2cccc(Cl)c2)ccc1Cl [Example 22, 3-Chloro-4-(3′,4-dichlorobiphenyl-3-ylcarboxamido)-5-methylbenzoic acid] | $ (% inh >75) | # (% inh >75) | – | –
21 | Cc1cc(C(=O)O)cc(C)c1NC(=O)c1nc(-c2cccc(Cl)c2)ccc1Cl [Example 23, 4-(3-Chloro-6-(3-chlorophenyl)picolinamido)-3,5-dimethylbenzoic acid] | – | – | > 75 | > 75
22 | Cc1cc(C(=O)O)cc(C)c1NC(=O)c1cc(OCC(C)C)ccc1Cl [Example 24, 4-(2-Chloro-5-isobutoxybenzamido)-3,5-dimethylbenzoic acid] | – | – | > 75 | > 75
23 | CC(C)COc1ccc(Cl)c(C(=O)Nc2c(Cl)cc(C(=O)O)cc2Cl)c1 [Example 25, 3,5-Dichloro-4-(2-chloro-5-isobutoxybenzamido)benzoic acid] | – | – | > 75 | > 75
